Experimental data published in patent US20260345595A1, “NOVEL FLUORENE DERIVATIVE COMPOUND AND USE THEREOF” (JD BIOSCIENCE INC., priority 2022, published 2026).

Tests used:
[1] = test system: DSS-induced colitis in C57BL6J JmcSlc mice; test: DSS colitis, inflammatory bowel disease animal model; format: in vivo, mouse; conditions: for colonic epithelial cell recovery (H&E): FIG. 6A
Description: Colitis was induced in 8-week-old male C57BL6J JmcSlc mice by feeding 3.5% dextran sodium sulfate (DSS) ad libitum for 9 days, and then replacing the same with normal drinking water. The vehicle and Compound 1 (0.5 mg/kg or 1 mg/kg) were orally administered to the experimental animal model prepared as described above daily from 2 days before DSS drinking until the end of drinking. In order to determine the degree of colonic inflammation, the degree of longitudinal contraction of the isolated colon was measured, and the histological scores were confirmed through H&E staining, which is shown in FIG. 6. Furthermore, total RNA was isolated from the isolated colon, cDNA was synthesized, and the expression levels of representative cytokines (IFNγ, IL-1β, IL-4, IL-6, IL-10, IL-12β, IL-17α, and TNFα) were measured and compared using qPCR, and the results are shown in FIG. 7.

[2] = test system: LPS-induced sepsis in C57BL6J mice; test: LPS-induced sepsis animal model, viability; format: in vivo, mouse; conditions: for Viability: 15 mg/kg i.p. before 50 mg/kg LPS
Description: 50 mg/kg of lipopolysaccharide (LPS) administration dose corresponds to the ‘half lethal dose’ that causes death of one half of the population within 24 hours. […] The animal experiment was conducted with six 8-week-old male C57BL6J mice per group. Each mouse was intraperitoneally administered 15 mg/kg of Compound 1 or pretreated with 100 μL of 10% DMSO (vehicle control). 30 minutes later, 50 mg/kg lipopolysaccharide was intraperitoneally injected into each mouse, and the viability was examined for 80 hours, and the results are shown in FIG. 9 and Table 2.

[3] = test system: normal cells (BJ, CHO, Raw264.7, L929); test: Growth inhibition of normal cells, Cell Counting Kit-8; format: cell-based, human (BJ); hamster (CHO); murine (Raw264.7); mouse (L929); conditions: concentrations of up to less than 40 μM, 24 hours
Description: In order to verify the growth inhibitory effect of Compound 1 on various normal and cancer cell lines, 25 types of cell lines listed in Table 7 below were tested. In detail, each cell was seeded at a density of 2×10^4 cells/well in a 96-well plate and cultured for 24 hours, and then the medium was replaced with a medium comprising 0.5% (for cancer cells) or 10% (for normal cells) FBS, and Compound 1 was treated at various concentrations. 24 hours later, 10 μL of Cell Counting Kit-8 (Dojindo Molecular Technologies) was added, and 1 hour later, absorbance at 480 nm was measured using a microplate reader (TECAN SPARK), and the results are shown in FIGS. 15 to 21.

[4] = test system: HCT-116 colorectal cancer; test: HCT-116 colorectal cancer tumor model; format: in vivo, nude mice; conditions: 0.5 and 1.0 mg/kg
Description: A colorectal cancer model was established by subcutaneously transplanting HCT-116 colorectal cancer cell line into nude mice. The colorectal cancer model was divided into the following three groups: Group 1 was administered a vehicle as a control group, Group 2 was administered 0.5 mg/kg of Compound 1, and Group 3 was administered 1.0 mg/kg of Compound 1. The drug was orally administered once a day for a total of 21 times. To evaluate the therapeutic efficacy, the tumor size was measured before drug administration and on days 3, 7, 10, 14, 17, 21, and 24 after drug administration. The tumor size was calculated as follows:
Tumor size (mm^3)=(A×B^2)/2 • wherein A and B represent the tumor long axis and short axis, respectively.
In addition, the body weight was measured before drug administration and on days 7, 14, and 21 after drug administration.

[5] = test system: CT26 colorectal cancer; test: CT26 colorectal cancer tumor model; format: in vivo, nude mice; conditions: 1.0 mg/kg, FIG. 22
Description: A colorectal cancer model was established by subcutaneously transplanting CT26 colorectal cancer cell line into nude mice. The colorectal cancer model was divided into two groups: vehicle administration group and Compound 1 administration group. […] Similar to Experimental Example 13, tumor size was calculated before drug administration and on days 3, 7, 10, 14, 18, 22, and 24 after drug administration, and body weight was measured before drug administration and on days 7, 14 and 22 after drug administration, which are shown in FIG. 22.

[6] = colon tissue, qPCR, versus vehicle, FIG. 7

In the case of CC(C(=O)NNc1ccc(F)cc1)n1cc(-c2cc(F)cc3c2-c2ccccc2C3(O)C(F)(F)F)cn1 (centres unmarked) [Compound 1, 2-(4-(2-fluoro-9-hydroxy-9-(trifluoromethyl)-9H-fluoren-4-yl)-1H-pyrazol-1-yl)-N′-(4-fluorophenyl)propanehydrazide], the “longitudinal contraction of colon” value ([1]; 0.5 mg/kg and 1 mg/kg, oral daily, versus vehicle, FIGS. 6C and 6D) is reported as “the contraction was alleviated both in the group administered 0.5 mg/kg of Compound 1 and in the group administered 1 mg/kg of Compound 1, as compared to the vehicle administration group, and the effect increased as the administration amount increased”, the “colonic epithelial cell recovery (H&E)” value ([1]; 0.5 mg/kg, oral daily) is reported as “the recovery was slight” and the “colonic epithelial cell recovery (H&E)” value ([1]; 1 mg/kg, oral daily) is reported as “remarkable epithelial cell recovery”. The “tissue (histological) score” value ([1]; 1 mg/kg, oral daily, FIG. 6B) was “the lowest score”, the “IFNγ mRNA expression” value [1, 6] was “significantly reduced” and the “IL-4 mRNA expression” value [1, 6] was “increased”. For the same molecule, the “IL-6 mRNA expression” value [1, 6] was “significantly reduced”, the “IL-12b mRNA expression” value [1, 6] was “significantly reduced” and the “IL-17a mRNA expression” value [1, 6] was “significantly reduced”. The “TNFα mRNA expression” value [1, 6] was “significantly reduced”, the Viability ([2]; 0 h) was 100% and the Viability ([2]; 20 h) was 100%. The Viability ([2]; 24 h) was 83.3%, the Viability ([2]; 28 h) was 83.3% and the Viability ([2]; 32 h) was 83.3%. The Viability ([2]; 36 h) was 66.7%, the Viability ([2]; 40 h) was 66.7% and the Viability ([2]; 44 h) was 66.7%. It also gave a Viability ([2]; 48 h) of 66.7%, a Viability ([2]; 50 h) of 66.7% and a Viability ([2]; 60 h) of 50%. The Viability ([2]; 70 h) was 50%, the Viability ([2]; 80 h) was 50% and the “viability in sepsis-induced animal model (in words)” value ([2]; 15 mg/kg i.p., p<0.01 versus LPS+vehicle, FIG. 9) was “had the effect of improving the viability”. For the same molecule, the “toxicity on normal cells” value [3] was “does not exhibit toxicity on normal cells”, the body weight change ([4]; oral once a day, 21 times) was “no significant body weight change” and the “tumor growth (in words)” value ([4]; oral, p<0.05 versus vehicle, FIG. 21) was “statistically significant concentration-dependent tumor growth inhibitory effect”. The body weight change [5] was “Neither the vehicle administration group nor the compound 1 administration group showed any change in the body weight” and the “tumor growth (in words)” value ([5]; p<0.05 versus vehicle) was “statistically significantly delayed and inhibited”.
